Consider 1 compound from patent publication US20230085307A1, “PYRIDAZINONE COMPOUND AND HERBICIDE” (NISSAN CHEMICAL CORPORATION, priority 2019, published 2023).

Data set [1] concerns barnyard grass. Description: Test Example 4: herbicidal effect by soil treatment (Table 19, symbol H). In kind it is in vivo, barnyard grass (Echinochloa crus-galli). As to conditions: amount of applied herbicide 320 g/ha. The procedure, abridged:
(§1)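 Three weeks of greenhouse growth at 25° C. to 30° C. followed a uniform surface spray of water-diluted emulsion at a predetermined herbicide amount. Seeds had been sown beforehand under about 1.5 cm of sterilized diluvial soil. Grading followed criteria set out in an earlier test.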

For the next data set, the system named is southern crabgrass. Description: Test Example 4: herbicidal effect by soil treatment (Table 19, symbol F). It counts as in vivo, southern crabgrass (Digitaria ciliaris). As to conditions: amount of applied herbicide 320 g/ha. A digest of the protocol: as §1
For the next data set, the system named is velvetleaf. Nature of the data set: Test Example 4: herbicidal effect by soil treatment (Table 19, symbol M). It counts as in vivo, velvetleaf (Abutilon theophrasti). As to conditions: amount of applied herbicide 320 g/ha. A digest of the protocol:
as §1

Data set [2] has as its system windgrass. Description: Test Example 4: herbicidal effect by soil treatment (Table 19, symbol L). As to conditions: amount of applied herbicide 320 g/ha. It counts as in vivo, windgrass (Apera spica-venti). The procedure, abridged: as §1
Data set [3] relates to windgrass. Description: Test Example 5: herbicidal effect by foliage application, plastic box (Table 20, symbol L). As to conditions: foliage application, 320 g/ha, evaluated three weeks after application. In kind it is in vivo, windgrass (Apera spica-venti). A digest of the protocol:
(§2)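 Plants sown in sterilized diluvial soil and grown 14 days in a greenhouse at 25° C to 30° C, then sprayed on the foliage with the compound's emulsion diluted in water to a predetermined herbicide amount. Injury to weeds and crops scored three weeks after application on a visual rating scale.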

For the next data set, the system named is persian speedwell. Nature of the data set: Test Example 4: herbicidal effect by soil treatment (Table 19, symbol R). In kind it is in vivo, Persian speedwell (Veronica persica). As to conditions: amount of applied herbicide 320 g/ha. The procedure, abridged:
as §1

The subject of the next data set is chickweed. Description: Test Example 5: herbicidal effect by foliage application, plastic box (Table 20, symbol P). As to conditions: foliage application, 320 g/ha, evaluated three weeks after application. It counts as in vivo, common chickweed (Stellaria media). A digest of the protocol:
as §2

In data set [4] the test system is rapeseed. Description: Test Example 5: effect on crop by foliage application, plastic box (Table 20, symbol g). As to conditions: 320 g/ha, evaluated three weeks after application. It counts as in vivo. The text has this: (§3) [Test Example 5] Herbicidal Effect Test by Foliage Application
(§4) Sterilized diluvial soil was placed in a plastic box having a length of 21 cm, a width of 13 cm, and a depth of 7 cm. The seeds of each of southern crabgrass, green foxtail, barnyard grass, wild oat, blackgrass, Italian ryegrass, windgrass, velvetleaf, redroot pigweed, lambsquarters, chickweed, false cleavers, persian speedwell, corn, soybean, rice, wheat, beet, and rapeseed were sowed in a spot-like manner and covered with the soil having a thickness of about 1.5 cm. Thereafter, the plants were grown in a greenhouse at 25° C. to 30° C. After 14-day growth of the plants, the emulsion agent of the compound of the present invention prepared according to Formulation Example 2 was diluted with water so as to achieve a predetermined herbicide amount, and the diluted emulsion agent was uniformly applied to a foliage part with a small-sized spray. Three weeks after the herbicide application, the effect of the herbicide on each plant was evaluated according to the criteria of Test Example 1.

The next data set deals with beet. Nature of the data set: Test Example 4: effect on crop by soil treatment (Table 19, symbol f). In kind it is in vivo. As to conditions: amount of applied herbicide 320 g/ha.
Source text: (§5) [Test Example 4] Herbicidal Effect Test by Soil Treatment
as §4, with “Subsequently,” for “Thereafter, the plants were grown in a greenhouse at 25° C. to 30° C. After 14-day growth of the plants,”, “the surface of the soil” for “a foliage part”, “spray. The plastic box was placed in a greenhouse at 25° C. to 30° C. for growth of the plants.” for “spray.”

Data set [5] concerns corn. Description: Test Example 4: effect on crop by soil treatment (Table 19, symbol c). In kind it is in vivo. As to conditions: amount of applied herbicide 320 g/ha.
Source text: as §5
as §4, with “Subsequently,” for “Thereafter, the plants were grown in a greenhouse at 25° C. to 30° C. After 14-day growth of the plants,”, “the surface of the soil” for “a foliage part”, “spray. The plastic box was placed in a greenhouse at 25° C. to 30° C. for growth of the plants.” for “spray.”

Data set [6] concerns barnyard grass. Nature of the data set: Test Example 5: herbicidal effect by foliage application, plastic box (Table 20, symbol H). In kind it is in vivo, barnyard grass (Echinochloa crus-galli). As to conditions: foliage application, 320 g/ha, evaluated three weeks after application. A digest of the protocol: as §2
For another data set, the system named is directly sowed rice. Nature of the data set: Test Example 3: effect on crop by foliage application, Wagner pot (Table 18, symbol b). It counts as in vivo. As to conditions: amount of applied herbicide 320 g/ha. As to the method: [Test Example 3] Herbicidal Effect Test by Foliage Application After alluvial soil was placed into 1/10000 are of Wagner pot, water was poured and mixed to form a submerged condition having a water depth of 0.1 cm to 0.5 cm. Seeds of barnyard grass, Chinese sprangletop, rice flat sedge, and rice were sowed and the pot was placed in a greenhouse at 25° C. to 30° C. for growth of the plants. After 14-day growth of the plants, the emulsion agent of the compound of the present invention prepared according to Formulation Example 2 was diluted with water so as to achieve a predetermined herbicide amount, and the diluted emulsion agent was uniformly applied to a foliage part with a small-sized spray. Three weeks after the herbicide application, the effect of the herbicide on each plant was evaluated according to the criteria of Test Example 1.

Data set [7] deals with corn. Description: Test Example 5: effect on crop by foliage application, plastic box (Table 20, symbol c). It counts as in vivo. As to conditions: 320 g/ha, evaluated three weeks after application.
Source text: as §3, §4

The next data set deals with wheat. Nature of the data set: Test Example 4: effect on crop by soil treatment (Table 19, symbol e). In kind it is in vivo. As to conditions: amount of applied herbicide 320 g/ha.
Source text: as §5
as §4, with “Subsequently,” for “Thereafter, the plants were grown in a greenhouse at 25° C. to 30° C. After 14-day growth of the plants,”, “the surface of the soil” for “a foliage part”, “spray. The plastic box was placed in a greenhouse at 25° C. to 30° C. for growth of the plants.” for “spray.”

The subject of data set [8] is rapeseed. Description: Test Example 4: effect on crop by soil treatment (Table 19, symbol g). As to conditions: amount of applied herbicide 320 g/ha. In kind it is in vivo.
Source text: as §5
as §4, with “Subsequently,” for “Thereafter, the plants were grown in a greenhouse at 25° C. to 30° C. After 14-day growth of the plants,”, “the surface of the soil” for “a foliage part”, “spray. The plastic box was placed in a greenhouse at 25° C. to 30° C. for growth of the plants.” for “spray.”

A further data set deals with soybean. Description: Test Example 5: effect on crop by foliage application, plastic box (Table 20, symbol d). As to conditions: 320 g/ha, evaluated three weeks after application. It counts as in vivo.
Source text: as §3, §4

The test system of a further data set is blackgrass. Nature of the data set: Test Example 4: herbicidal effect by soil treatment (Table 19, symbol J). It counts as in vivo, blackgrass (Alopecurus myosuroides). As to conditions: amount of applied herbicide 320 g/ha. The procedure, abridged:
as §1

The test system of the next data set is lambsquarters. Nature of the data set: Test Example 4: herbicidal effect by soil treatment (Table 19, symbol O). It counts as in vivo, lambsquarters (Chenopodium album). As to conditions: amount of applied herbicide 320 g/ha. A digest of the protocol: as §1
In a further data set the test system is Chinese sprangletop. Description: Test Example 3: herbicidal effect by foliage application, Wagner pot (Table 18, symbol D). In kind it is in vivo, chinese sprangletop (Leptochloa chinensis). As to conditions: amount of applied herbicide 320 g/ha. A digest of the protocol: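 Plants were sown in alluvial soil held under 0.1–0.5 cm standing water and grown 14 days in a greenhouse at 25–30 °C. An emulsifiable formulation, water-diluted to the set dose, was then sprayed onto the foliage, and effects were scored three weeks later using previously defined criteria.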

Another data set concerns redroot pigweed. Nature of the data set: Test Example 5: herbicidal effect by foliage application, plastic box (Table 20, symbol N). It counts as in vivo, redroot pigweed (Amaranthus retroflexus). As to conditions: foliage application, 320 g/ha, evaluated three weeks after application. A digest of the protocol: as §2

Consider `COc1ccccc1-c1sc2ccc(C3CC3)cc2c1-c1c(O)c(C)nn(C)c1=O` [Compound No. 2-160, 4-(5-cyclopropyl-2-(2-methoxyphenyl)benzo[b]thiophen-3-yl)-5-hydroxy-2,6-dimethylpyridazin-3(2H)-one], for which, in the data set on barnyard grass [1], the “H: barnyard grass, herbicidal effect rating” value is reported as 0 (Herbicidal rate of 5% or less (almost no effect)). Also, the “F: southern crabgrass, herbicidal effect rating” value in the data set with southern crabgrass is reported as 0 (Herbicidal rate of 5% or less (almost no effect)). Further, the “M: velvetleaf, herbicidal effect rating” value with velvetleaf was 0 (Herbicidal rate of 5% or less (almost no effect)). For the same compound, the “L: windgrass, herbicidal effect rating” value with windgrass [2] was 3 (Herbicidal rate of 40% or more and less than 70%). The “herbicidal effect on L: windgrass (criteria 0-5)” value in the data set on windgrass [3] is 5 (Herbicidal rate of 90% or more (almost completely withered)). Besides, in the data set on persian speedwell, the “R: persian speedwell, herbicidal effect rating” value was 1 (Herbicidal rate of 5% or more and less than 20%). In addition, in the data set on chickweed, the “herbicidal effect on P: chickweed (criteria 0-5)” value was 5 (Herbicidal rate of 90% or more (almost completely withered)). Besides, the “effect on crop g: rapeseed (criteria 0-5)” value in the data set on rapeseed [4] is 5 (Herbicidal rate of 90% or more (almost completely withered)). In addition, the “f: beet, effect on crop rating” value in the data set with beet is given as 0 (Herbicidal rate of 5% or less (almost no effect)). In the data set with corn [5], the “c: corn, effect on crop rating” value is given as 0 (Herbicidal rate of 5% or less (almost no effect)). In addition, the “herbicidal effect on H: barnyard grass (criteria 0-5)” value in the data set with barnyard grass [6] is 4 (Herbicidal rate of 70% or more and less than 90%). Moreover, the “effect on crop b: directly sowed rice” value in the data set with directly sowed rice is 0 (Herbicidal rate of 5% or less (almost no effect)). Also, the “effect on crop c: corn (criteria 0-5)” value in the data set on corn [7] was 0 (Herbicidal rate of 5% or less (almost no effect)). Also, in the data set on wheat, the “e: wheat, effect on crop rating” value is reported as 0 (Herbicidal rate of 5% or less (almost no effect)). Moreover, the “g: rapeseed, effect on crop rating” value in the data set on rapeseed [8] was 1 (Herbicidal rate of 5% or more and less than 20%). Further, the “effect on crop d: soybean (criteria 0-5)” value in the data set with soybean is 3 (Herbicidal rate of 40% or more and less than 70%). Besides, the “J: blackgrass, herbicidal effect rating” value in the data set with blackgrass is listed as 0 (Herbicidal rate of 5% or less (almost no effect)). Besides, in the data set on lambsquarters, the “O: lambsquarters, herbicidal effect rating” value is listed as 0 (Herbicidal rate of 5% or less (almost no effect)). Besides, the “herbicidal effect on D: Chinese sprangletop” value with Chinese sprangletop was 3 (Herbicidal rate of 40% or more and less than 70%). Further, the “herbicidal effect on N: redroot pigweed (criteria 0-5)” value in the data set on redroot pigweed is listed as 5 (Herbicidal rate of 90% or more (almost completely withered)).
